Results: ChEMBL document CHEMBL1201862, “PubChem BioAssay data set” (2004)
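These data come from cells grown in 96-well plates and exposed to compound for 48 hours at five concentrations. GI50 = concentration required for 50% inhibition of growth.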 The source made the active and inactive calls. Rule as the data show it: active = GI50 up to about 1.1 µM and inactive = higher.

How the values were obtained:
Assay in all cases: inhibition of tumour cell growth, NCI panel, 48 h
M19-MEL = tested on: M19-MEL
LXFL 529 = tested on: LXFL 529
XF498 = tested on: XF498
RXF 631 = tested on: RXF 631
DMS-273 = tested on: DMS-273
SNB-78 = tested on: SNB-78
HOP-18 = tested on: HOP-18
KM-20L2 = tested on: KM-20L2
DMS-114 = tested on: DMS-114

Measured: GI50

O=C1CSc2cc([N+](=O)[O-])ccc2N1
inactive: M19-MEL > 100 µM | LXFL 529 > 100 µM | XF498 > 100 µM | RXF 631 > 100 µM | DMS-273 > 100 µM | SNB-78 > 100 µM | HOP-18 > 100 µM | KM-20L2 > 100 µM | DMS-114 > 100 µM

COC(=O)C1CC(=O)O[C@H]1c1ccc(OC)c(OC)c1 (stereo partly drawn)
inactive: M19-MEL > 100 µM | LXFL 529 > 100 µM | XF498 > 100 µM | RXF 631 > 100 µM | DMS-273 > 100 µM | SNB-78 > 100 µM | HOP-18 > 100 µM | KM-20L2 > 100 µM | DMS-114 > 100 µM
